Format in all cases: physicochemical
Assay [1] can be described thus: Anti-ice nucleation activity test with respect to biological material (beef liver), droplet-freezing method of Vali. As to conditions: final concentration 0.1 mg/mL, 10 μL dropped on 1 mm x 1 mm x 1 mm beef liver; blank ultra-pure water; average of three tests. As to the method: (§1) The anti-ice nucleation active performance (supercooling acceleration performance) was measured by using the droplet-freezing method of Vali. More specifically, in accordance with the droplet-freezing method of Vali (FIG. 3), an aluminum film was placed on the copper plate of a cold plate chiller (CoolAce CCA-1000, Eyela), and the film was coated with a silicone oil suspension diluted with acetone and chloroform (a solution of acetone:chloroform=1:2). Then, each sample for evaluation or the blank sample was dropped (10 μL each) on 30 points of the surface, the temperature was decreased at a rate of 1.0° C./min, and the temperature at which 50% of the 30 droplets were frozen was considered to be T50.
The droplet-freezing temperature of each sample was referred to as SampleT50, and the droplet-freezing temperature of the blank sample was referred to as BlankT50. Then, the anti-ice nucleation activity level ΔT50 (° C.) was calculated by the following formula: Formula: ΔT50 (° C.)=BlankT50−SampleT50 […]
The anti-ice nucleation active performance (supercooling acceleration performance) was measured by using a method similar to the droplet-freezing method of Vali described in Test Example 1. […]

The nature of assay [2]: Anti-ice nucleation active performance (supercooling acceleration), droplet-freezing method of Vali, with silver iodide. As to conditions: 100 μL mixed with 900 μL silver iodide 1.0 mg/mL, average of three tests; for Anti-ice nucleation activity level (ΔT50 = BlankT50 − SampleT50): purine base aqueous solution 1.0 mg/mL, cooling 1.0° C./min. On the procedure: Nine hundred microliters of an aqueous solution was prepared by dissolving silver iodide (produced by Wako Pure Chemical Industries, Ltd.) in ultra-pure water to a silver iodide concentration of 1.0 mg/mL.
(§2) A blank sample was prepared by mixing 100 μL of ultra-pure water with 900 μL of the aqueous solution in which silver iodide was dissolved.
as §1
(§3) The droplet-freezing temperature of each sample was referred to as SampleT50, and the droplet-freezing temperature of the blank sample was referred to as BlankT50. Then, the anti-ice nucleation activity level ΔT50 (° C.) was calculated by the following formula: Formula: ΔT50 (° C.)=BlankT50−SampleT50
Nine hundred microliters of an aqueous solution was prepared by dissolving silver iodide in ultra-pure water to a silver iodide concentration of 1.0 mg/mL.
as §2
(§4) The results are average values of the results of the test performed three times.
as §2, §4

The subject of a further assay is Pseudomonas fluorescens. The assay is described as follows: Anti-ice nucleation active performance, droplet-freezing method of Vali, with Pseudomonas fluorescens as ice nucleation active substance. As to conditions: Example 1 solution (1.0 mg/mL); Pseudomonas fluorescens in place of silver iodide. As to the method:
The anti-ice nucleation active performance (supercooling acceleration performance) was measured by using the droplet-freezing method of Vali. More specifically, in accordance with the droplet-freezing method of Vali (FIG. 3), an aluminum film was placed on the copper plate of a cold plate chiller (CoolAce CCA-1000, Eyela), and the film was coated with a silicone oil suspension diluted with acetone and chloroform (a solution of acetone:chloroform=1:2). […]
as §3
A sample for evaluation of Example 1 was prepared in a manner similar to that described in Test Example 1, except that Pseudomonas fluorescens, which is the Pseudomonas bacterium, was used in place of silver iodide, which is an ice nucleation active substance. The anti-ice nucleation active performance (supercooling acceleration performance) was measured by using a test method similar to that described in Test Example 1.

Setting [3] is: adenine concentration series 0.1-6.0 (mM) per Example.
Where [4] appears, read: polydeoxyadenylic acid with 6, 9 or 12 adenine bases, 1.0 mg/mL in TE buffer.

With `Nc1ncnc2nc[nH]c12` [Example 1, adenine], the “Anti-ice nucleation activity level with respect to beef liver” value in assay [1] came to 0.9 °C. Besides, the “Anti-ice nucleation activity level (ΔT50)” value in assay [2] (setting [3]) is 9.2 °C. Moreover, the “Anti-ice nucleation activity level (ΔT50 = BlankT50 − SampleT50)” value in assay [2] turned out to be 9.2 °C. Also, the “Anti-ice nucleation active performance (ΔT50)” value with Pseudomonas fluorescens worked out at 1.0 °C.

`Nc1nc2nc[nH]c2c(=O)[nH]1` [Example 2, Guanine]: the “Anti-ice nucleation activity level (ΔT50 = BlankT50 − SampleT50)” value in assay [2] stood at 1.0 °C.

Regarding `O=c1[nH]cnc2nc[nH]c12` [Example 3, Hypoxanthine], the “Anti-ice nucleation activity level (ΔT50 = BlankT50 − SampleT50)” value in assay [2] was found to be 2.1 °C.

On to `Cn1cnc2c1c(=O)[nH]c(=O)n2C` [Example 4, Theobromine], for which the “Anti-ice nucleation activity level (ΔT50 = BlankT50 − SampleT50)” value in assay [2] was found to be 1.2 °C.

Consider `Cn1c(=O)c2c(ncn2C)n(C)c1=O` [Example 5, Caffeine], for which the “Anti-ice nucleation activity level with respect to beef liver” value in assay [1] was 0.7 °C. Besides, the “Anti-ice nucleation activity level (ΔT50 = BlankT50 − SampleT50)” value in assay [2] is 1.3 °C.

For the compound `O=c1[nH]c(=O)c2[nH]c(=O)[nH]c2[nH]1` [Example 6, Uric acid], the “Anti-ice nucleation activity level (ΔT50 = BlankT50 − SampleT50)” value in assay [2] was 1.8 °C.

`Cn1c(=O)c2[nH]cnc2n(C)c1=O` [Example 7, Theophylline]: the “Anti-ice nucleation activity level (ΔT50 = BlankT50 − SampleT50)” value in assay [2] is 2.0 °C.

`Nc1ncnc2nc[nH]c12` [Example 8, adenine]: in assay [2] (setting [3]), the “Anti-ice nucleation activity level (ΔT50)” value came to 1.7 °C.

On to `Nc1ncnc2nc[nH]c12` [Example 9, adenine], for which, in assay [2] (setting [3]), the “Anti-ice nucleation activity level (ΔT50)” value turned out to be 2.3 °C.

`Nc1ncnc2nc[nH]c12` [Example 10, adenine]: the “Anti-ice nucleation activity level (ΔT50)” value in assay [2] (setting [3]) was found to be 4.3 °C.

Consider `Nc1ncnc2nc[nH]c12` [Example 11, adenine], for which the “Anti-ice nucleation activity level (ΔT50)” value in assay [2] (setting [3]) amounted to 4.9 °C.

Regarding `Nc1ncnc2nc[nH]c12` [Example 12, adenine], the “Anti-ice nucleation activity level (ΔT50)” value in assay [2] (setting [3]) turned out to be 7.8 °C.

Consider `Nc1ncnc2nc[nH]c12` [Example 13, adenine], for which the “Anti-ice nucleation activity level (ΔT50)” value in assay [2] (setting [3]) came to 6.7 °C.

As for `Nc1ncnc2nc[nH]c12` [Example 14, adenine], the “Anti-ice nucleation activity level (ΔT50)” value in assay [2] (setting [3]) was determined as 7.2 °C.

As for polydeoxyadenylic acid [Example 15], in assay [2] (setting [4]), the “Anti-ice nucleation activity level (ΔT50)” value was found to be 1.26 °C.

For polydeoxyadenylic acid [Example 16], in assay [2] (setting [4]), the “Anti-ice nucleation activity level (ΔT50)” value came to 1.43 °C.

For the compound polydeoxyadenylic acid [Example 17], the “Anti-ice nucleation activity level (ΔT50)” value in assay [2] (setting [4]) is 1.60 °C.

Values taken from patent US10633570B2, “Anti-ice nucleation activator” (THE SCHOOL CORPORATION KANSAI UNIVERSITY, priority 2015, dated 2020).
